The IC50 is the midpoint of a concentration-inhibition curve.

Results on 35 molecules are retold here after PubChem BioAssay AID1645865 (Buhrlage Lab, Dana-Farber Cancer Institute and Novartis …, 2021).

Active and inactive are the calls of the source.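 Rule for the calls: active = maximal inhibition of the USP30 enzyme reaching 30% or more across the dose series; inactive = the rest.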

For this experiment, the target named is Ubiquitin carboxyl-terminal hydrolase 30 (Homo sapiens) (UniProt Q70CQ3). As to the kind of experiment: ubiquitin-specific protease 30 DUB inhibitors, concentration-effect, biochemical, validation of primary actives (AID 1645865). The settings on record: purified USP30, Ub-rhodamine cleavage, fluorescence, 2 h.
Ubiquitin carboxyl-terminal hydrolase 30 (Homo sapiens), sequence (Q70CQ3 whole entry, looked up): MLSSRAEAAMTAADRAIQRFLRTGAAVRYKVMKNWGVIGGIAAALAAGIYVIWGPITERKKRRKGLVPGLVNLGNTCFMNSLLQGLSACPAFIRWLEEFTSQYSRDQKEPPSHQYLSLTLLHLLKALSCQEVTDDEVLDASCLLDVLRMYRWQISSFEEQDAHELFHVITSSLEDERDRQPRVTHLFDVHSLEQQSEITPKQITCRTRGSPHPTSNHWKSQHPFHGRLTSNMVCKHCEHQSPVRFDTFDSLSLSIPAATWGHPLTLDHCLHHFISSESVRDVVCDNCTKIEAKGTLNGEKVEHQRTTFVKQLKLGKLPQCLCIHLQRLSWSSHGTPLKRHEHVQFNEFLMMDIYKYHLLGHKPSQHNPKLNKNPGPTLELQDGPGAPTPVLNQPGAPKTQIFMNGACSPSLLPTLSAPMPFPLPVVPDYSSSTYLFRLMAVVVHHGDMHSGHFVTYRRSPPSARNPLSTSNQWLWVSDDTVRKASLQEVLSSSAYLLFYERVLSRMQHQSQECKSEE

Consider `Nc1ccc(F)c(NS(=O)(=O)c2ccccc2)c1`, for which the IC50 was > 50 µM (inactive).
For `Cc1ccc2nc(CNC(=O)c3ccccc3-c3nc(-c4ccc(F)cc4)no3)[nH]c2c1` the value was 33.9 µM.
For `CC(=O)O[C@H]1[C@]2(O)C[C@]34SS[C@](CO)(C(=O)N3[C@@H]2C[C@@]12O[C@@H](C)C(C)(C)C2=O)N(C)C4=O` the value was 2.25 µM.
For `CC(=O)N1CCCC(c2nc(C)cc(-c3cc(F)ccc3C(=O)O)n2)C1` (stereo not given) the value was > 50 µM (inactive).
Turning to `CC1=C(c2ccc(C)c(C)c2)S(=O)(=O)NC1=NCC(=O)NCCCc1ccccc1`, the half-inhibitory concentration (IC50) is 19.7 µM.
Next, `Cc1ccc(Nc2nc(C(=O)NCc3ccc4c(c3)OCO4)cc3occc23)cc1Cl`: > 50 µM (inactive); `COc1ccccc1/C=C/C(=O)Nc1nc2n(n1)C(c1ccc(Cl)cc1)CC(=O)N2` (stereo not given): > 50 µM (inactive); `N#Cc1ccc(NC(=O)Nc2cccn(Cc3ccccc3F)c2=O)cc1`: 3.2 µM.
As to `Cc1sc2ccn(C)c(=O)c2c1C(=O)NC1CCCC1`, the IC50 is 25.9 µM.
Next, `O=C1CN(C(=O)COC(=O)CCCN2C(=O)c3cccc4cccc(c34)C2=O)c2ccccc2N1`: > 50 µM (inactive); `CCn1cc(-c2cc(C(=O)Nc3cnn(Cc4cccc(F)c4)c3)c3ccccc3n2)cn1`: 49.2 µM; `O=C(NCc1ccc(-c2nc3cnccc3o2)cc1)c1ccccc1F`: 17.5 µM.
For `COc1ccc(-c2nnc(SCc3ccccc3C#N)o2)c(OC)c1` the value was 49.7 µM; for `O=C(COC(=O)C1CCCN1C(=O)C12CC3CC(CC(C3)C1)C2)c1ccc(Cl)cc1` (stereo not given), 6.49 µM.
For `Cc1ccccc1NC(=O)c1ccn(COc2ccc(Cl)cc2)n1` the value was > 50 µM (inactive).
Take `Clc1cccc(N2CCN(c3ncnc4nc[nH]c34)CC2)c1`: the concentration for half-maximal inhibition (IC50) was 24.6 µM.
For `Cc1ccccc1OCCSc1nc2ccccc2n1CC(=O)NC1CC1` the value was 15.5 µM.
For `CN1CCN(c2ncnc3c2oc2ccc(Cl)cc23)CC1` the value was > 50 µM (inactive); for `CC(=O)c1ccc(NC(=O)CC2C(=O)Nc3nc4ccccc4n32)cc1` (stereo not given), 46.2 µM.
Take `COc1cccc(NC(=O)CSc2nnc(-c3cc4cccc(OC)c4o3)n2C)c1`: the IC50 is 5.18 µM.
Consider `O=C1CC(C(=O)Nc2ccc(F)cc2)n2nc(SCc3ccccc3)nc2N1` (stereo not given), for which the concentration for half-maximal inhibition (IC50) is 26.8 µM.
For `Cc1cccc(-n2ccnc(SCC(=O)Nc3ccc(Cl)cc3F)c2=O)c1` the value was 2.4 µM; for `COc1ccc(NC(=O)CNC(=O)c2ccc3nc(-n4cccc4)sc3c2)cc1`, 1.86 µM.
In the case of `COc1ccc(CNc2nn3c(-c4cncc(OC)c4)cnc3s2)cc1`, the IC50 is 1.5 µM.
For `Cc1ccc(C)c(Cn2nnc3c(=O)[nH]c(C4CCN(S(=O)(=O)c5ccc(S(=O)(=O)NC6CC6)cc5)CC4)nc32)c1` the value was 30.4 µM; for `O=C(NCc1ccc(F)cc1)N1CCC2(C1)Nc1cccnc1NC2=NCc1ccccc1` (stereo not given), > 50 µM (inactive).
For `COc1cccc(-n2nnc(C(=O)Nc3ccc(C)c(C)c3)c2C)c1` the value was > 50 µM (inactive); for `Cc1cc(C)c(NC(=O)CSc2nc3nccnc3c(=O)n2Cc2ccccc2Cl)c(C)c1`, 3.88 µM.
In the case of `COc1ccc(-c2nc(C)c(C(=O)NCc3ccc(S(N)(=O)=O)cc3)s2)cc1`, the IC50 was > 50 µM (inactive).
Regarding `CCOc1ccc(N2C(=O)c3ccccc3C2C(=O)NCc2ccccc2OC)cc1` (stereo not given), the IC50 is 41.5 µM.
Next, `O=C(Cc1ccccc1F)Nc1nc(-c2ccco2)c(-c2ccco2)s1`: > 50 µM (inactive); `O=C(CCCCn1c(=O)c2ccccc2n(Cc2ccccc2F)c1=O)NCCc1ccccc1`: 8.13 µM.
For `COc1ccccc1NC(=O)c1cc2c(C)nn(Cc3ccccc3)c2s1` the value was 28.9 µM; for `O=C(Nc1ccccc1)C1CCCN(C(=O)c2cc3ccccc3[nH]2)C1` (stereo not given), 25.3 µM; for `Cc1cc(O)c(=O)cc2c1C[C@H]1CC(C)(C)/C=C/C[C@@]3(C)Oc4cc(=O)c(O)cc(C)c4C[C@@H]3C[C@H](O)[C@]1(C)O2`, > 50 µM (inactive).
